According to ChEMBL document CHEMBL4665860, “Focused structure-activity relationship profiling around the 2-phenylindole scaffold of a cannabinoid type-1 receptor agonist-positive allosteric modulator: site-III aromatic-ring congeners with enhanced activity and solubility” (Bioorg Med Chem, 2020):
In brackets after ≈: the same amount, converted by molar mass.

Assays:
Cannabinoid receptor 1 [1] = target: T1, Cannabinoid receptor 1 (Homo sapiens, UniProt P21554); assay: Positive allosteric modulatory activity at human CB1 receptor expressed in CHO-K1 cells assessed as increase in CP55940-induced inhibition of forskolin-stimulated cAMP production preincubated for 30 mins […] by Hit-hunter assay; format: functional, cell-based
Cannabinoid receptor 1 [2] = target: T1, Cannabinoid receptor 1; assay: Positive allosteric modulatory activity at human CB1 receptor expressed in CHO-K1 cells assessed as increase in CP55940-induced beta-arrestin recruitment preincubated 90 mins followed by CP55940 addition and measured after 60 mins by PathHunter assay relative to CP55940; format: cell-based
Cannabinoid receptor 1 [3] = target: T1, Cannabinoid receptor 1; assay: Positive allosteric modulatory activity at human CB1 receptor expressed in CHO-K1 cells assessed as increase in CP55940-induced inhibition of forskolin-stimulated cAMP production preincubated for 30 mins followed by CP55940 addition and measured after 60 mins by Hit-hunter assay relative to control; format: functional, cell-based
Cannabinoid receptor 1 [4] = target: T1, Cannabinoid receptor 1; assay: Positive allosteric modulatory activity at human CB1 receptor expressed in CHO-K1 cells assessed as increase in CP55940-induced beta-arrestin recruitment […] and measured after 60 mins by PathHunter assay; format: cell-based
physchem = conditions: PBS, pH 7.4
[5] = filed as positive allosteric modulator

T1 sequence (P21554 whole entry): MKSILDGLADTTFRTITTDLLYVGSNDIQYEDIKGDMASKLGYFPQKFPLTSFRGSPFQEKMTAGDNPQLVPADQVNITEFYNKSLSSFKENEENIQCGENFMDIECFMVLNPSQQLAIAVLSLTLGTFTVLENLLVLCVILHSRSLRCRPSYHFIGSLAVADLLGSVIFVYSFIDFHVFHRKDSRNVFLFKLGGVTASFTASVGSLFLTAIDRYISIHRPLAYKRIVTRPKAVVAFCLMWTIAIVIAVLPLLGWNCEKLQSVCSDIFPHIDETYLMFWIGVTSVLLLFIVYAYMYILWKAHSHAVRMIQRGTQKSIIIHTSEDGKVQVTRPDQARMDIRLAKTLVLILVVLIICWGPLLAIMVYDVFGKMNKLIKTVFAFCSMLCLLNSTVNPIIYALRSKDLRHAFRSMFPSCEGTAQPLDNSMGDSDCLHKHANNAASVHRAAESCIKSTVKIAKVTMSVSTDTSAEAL

Row | Compound | EC50 (Cannabinoid receptor 1 [1]) [nM] | Emax (Cannabinoid receptor 1 [2]) [%] | Emax (Cannabinoid receptor 1 [3]; [5]) [%] | EC50 (Cannabinoid receptor 1 [4]) [nM] | Emax (Cannabinoid receptor 1 [2]; [5]) [%] | Emax (Cannabinoid receptor 1 [3]) [%] | solubility kinetic at 2 h (physchem) [µM]
1 | O=[N+]([O-])CC(c1ccc[nH]1)c1c(-c2ccccc2)[nH]c2ccccc12 (stereo not drawn) | 209 | 0.7 | 77.1 | > 10000 |  |  | 
2 | COc1ccccc1C(C[N+](=O)[O-])c1c(-c2ccccc2)[nH]c2ccccc12 (stereo not drawn) | 411 | 37 | 118 | 1870 |  |  | 
3 | O=[N+]([O-])CC(c1ccc(N2CCCCC2)cc1)c1c(-c2ccccc2)[nH]c2ccccc12 (stereo not drawn) | 476 |  | 125 | 2460 | 42.1 |  | 
4 | O=[N+]([O-])CC(c1ccc(-c2ccccc2)cc1)c1c(-c2ccccc2)[nH]c2ccccc12 (stereo not drawn) | > 10000 | 5 |  | > 10000 |  | 25.5 | 
5 | O=[N+]([O-])CC(c1ccccc1N1CCCC1)c1c(-c2ccccc2)[nH]c2ccccc12 (stereo not drawn) | 1820 | 7.28 | 75.9 | > 10000 |  |  | 
6 | Cc1ccc2c(C(C[N+](=O)[O-])c3nccs3)c(-c3ccccc3)[nH]c2c1 (stereo not drawn) | 50 |  | 98.5 | 163 | 80.6 |  | 3.13 (≈ 1.14 µg/mL)
7 | O=[N+]([O-])CC(Cc1ccccc1)c1c(-c2ccccc2)[nH]c2ccccc12 (stereo not drawn) | 420 | 0 | 115 | > 10000 |  |  | 
8 | O=[N+]([O-])CC(c1ccc(N2CCCC2)cc1)c1c(-c2ccccc2)[nH]c2ccccc12 (stereo not drawn) | 618 | 0 | 97.4 | > 10000 |  |  | 
9 | Cn1ccnc1C(C[N+](=O)[O-])c1c(-c2ccccc2)[nH]c2ccccc12 (stereo not drawn) | 533 | 0 | 52.7 | > 10000 |  |  | 
10 | O=[N+]([O-])CC(c1cccc(F)c1)c1c(-c2ccccc2)[nH]c2ccccc12 (stereo not drawn) |  | 15.7 | 118 | > 10000 |  |  | 
11 | O=[N+]([O-])CC(c1cccs1)c1c(-c2ccccc2)[nH]c2ccccc12 (stereo not drawn) | 31 | 36.1 | 116 | 584 |  |  | 
12 | O=[N+]([O-])CC(c1cccc(C(F)(F)F)c1)c1c(-c2ccccc2)[nH]c2ccccc12 (stereo not drawn) | 127 | 0 | 151 | > 10000 |  |  | 
13 | Cc1ccc2c(C(C[N+](=O)[O-])c3ncco3)c(-c3ccccc3)[nH]c2c1 (stereo not drawn) | 261 | 14.5 | 67.2 | > 10000 |  |  | 12.5 (≈ 4.34 µg/mL)
14 | Cc1ccccc1C(C[N+](=O)[O-])c1c(-c2ccccc2)[nH]c2ccccc12 (stereo not drawn) | 3 |  | 81.7 | 57 | 68.5 |  | 
15 | O=[N+]([O-])CC(c1ccc(Cl)cc1)c1c(-c2ccccc2)[nH]c2ccccc12 (stereo not drawn) | 1320 | 0 | 74.8 | > 10000 |  |  | 
16 | O=[N+]([O-])CC(c1ncco1)c1c(-c2ccccc2)[nH]c2ccccc12 (stereo not drawn) | 856 | 3.21 | 56.6 | > 10000 |  |  | 
17 | COc1cccc(C(C[N+](=O)[O-])c2c(-c3ccccc3)[nH]c3ccccc23)c1 (stereo not drawn) | 664 | 4.96 | 131 | > 10000 |  |  | 
18 | O=[N+]([O-])CC(c1ccc(N2CCOCC2)cc1)c1c(-c2ccccc2)[nH]c2ccccc12 (stereo not drawn) | > 10000 | 0 | 87.6 | > 10000 |  |  | 
19 | O=[N+]([O-])CC(c1ccc(F)cc1)c1c(-c2ccccc2)[nH]c2ccccc12 (stereo not drawn) |  |  |  | > 10000 |  |  | 
20 | O=[N+]([O-])CC(c1c(Cl)cccc1Cl)c1c(-c2ccccc2)[nH]c2ccccc12 (stereo not drawn) | 571 | 3.72 | 128 | > 10000 |  |  | 
21 | O=[N+]([O-])CC(c1cccc(N2CCCC2)c1)c1c(-c2ccccc2)[nH]c2ccccc12 (stereo not drawn) | 423 | 6.69 | 110 | > 10000 |  |  | 

Row | Compound | EC50 (Cannabinoid receptor 1 [1]) [nM] | Emax (Cannabinoid receptor 1 [2]) [%] | Emax (Cannabinoid receptor 1 [3]; [5]) [%] | EC50 (Cannabinoid receptor 1 [4]) [nM] | Emax (Cannabinoid receptor 1 [2]; [5]) [%] | Emax (Cannabinoid receptor 1 [3]) [%] | solubility kinetic at 2 h (physchem) [µM]
22 | O=[N+]([O-])CC(c1ccsc1)c1c(-c2ccccc2)[nH]c2ccccc12 (stereo not drawn) | 119 | 23.9 | 125 | 1610 |  |  | 
23 | O=[N+]([O-])CC(c1cccc(Cl)c1)c1c(-c2ccccc2)[nH]c2ccccc12 (stereo not drawn) | 859 | 16 | 121 | 2980 |  |  | 
24 | CC(C)(C)c1ccc(C(C[N+](=O)[O-])c2c(-c3ccccc3)[nH]c3ccccc23)cc1 (stereo not drawn) | 203 | 5.57 | 109 | > 10000 |  |  | 
25 | O=[N+]([O-])CC(c1nccs1)c1c(-c2ccccc2)[nH]c2ccccc12 (stereo not drawn) | 192 | 32.6 | 83.7 | 331 |  |  | 
26 | Cn1cncc1C(C[N+](=O)[O-])c1c(-c2ccccc2)[nH]c2ccccc12 (stereo not drawn) | > 10000 | 0 | 46.1 | > 10000 |  |  | 
27 | O=[N+]([O-])CC(c1cccc2ccccc12)c1c(-c2ccccc2)[nH]c2ccccc12 (stereo not drawn) | > 10000 | 0 | 62.2 | > 10000 |  |  | 
28 | O=[N+]([O-])CC(c1ccoc1)c1c(-c2ccccc2)[nH]c2ccccc12 (stereo not drawn) | 513 | 12.9 | 144 | > 10000 |  |  | 
29 | O=[N+]([O-])CC(c1ccccc1Cl)c1c(-c2ccccc2)[nH]c2ccccc12 (stereo not drawn) | 18 |  | 75 | 1240 | 93.4 |  | 
30 | Cc1ccc2c(C(C[N+](=O)[O-])c3cccs3)c(-c3ccccc3)[nH]c2c1 (stereo not drawn) | 33 |  |  | 379 | 78.2 |  | 1.56 (≈ 0.565 µg/mL)
31 | O=[N+]([O-])CC(c1ccc(C(F)(F)F)cc1)c1c(-c2ccccc2)[nH]c2ccccc12 (stereo not drawn) | > 10000 | 0 | 65.1 | > 10000 |  |  | 
32 | O=[N+]([O-])CC(c1c(-c2ccccc2)[nH]c2ccccc12)C1CCCCC1 (stereo not drawn) | 495 | 26.8 | 117 | 1900 |  |  | 
33 | O=[N+]([O-])CC(c1ccccc1C(F)(F)F)c1c(-c2ccccc2)[nH]c2ccccc12 (stereo not drawn) | 557 |  | 86.2 | 792 | 68.1 |  | 
34 | O=[N+]([O-])CC(c1ccco1)c1c(-c2ccccc2)[nH]c2ccccc12 (stereo not drawn) | 245 | 28.8 | 99.8 | 655 |  |  | 
35 | O=[N+]([O-])CC(c1ccccc1F)c1c(-c2ccccc2)[nH]c2ccccc12 (stereo not drawn) |  |  |  | 782 | 56 |  | 
36 | Cc1cccc(C(C[N+](=O)[O-])c2c(-c3ccccc3)[nH]c3ccccc23)c1 (stereo not drawn) | 662 | 23.8 | 116 | 1990 |  |  | 
37 | Cn1cnc(C(C[N+](=O)[O-])c2c(-c3ccccc3)[nH]c3ccccc23)c1 (stereo not drawn) | > 10000 | 0.667 |  | > 10000 |  | 34.4 | 
38 | O=[N+]([O-])CC(c1ccccc1)c1c(-c2ccccc2)[nH]c2ccccc12 (stereo not drawn) |  |  | 99.6 |  | 54.1 |  | 
39 | Cc1ccc(C(C[N+](=O)[O-])c2c(-c3ccccc3)[nH]c3ccccc23)cc1 (stereo not drawn) | 1440 | 0 | 119 | > 10000 |  |  | 
40 | COc1ccc(C(C[N+](=O)[O-])c2c(-c3ccccc3)[nH]c3ccccc23)cc1 (stereo not drawn) | 1180 | 0 | 119 | > 10000 |  |  | 
41 | O=[N+]([O-])CC(c1ccc2ccccc2c1)c1c(-c2ccccc2)[nH]c2ccccc12 (stereo not drawn) | 483 | 31.8 | 113 | 2340 |  |  | 
